In patent US9650390B2, “Water-soluble taxane derivatives and uses thereof” (priority 2014, dated 2017):

Legend:
[1] = test system: human non-small cell lung cancer NCI-H446; test: Inhibitory activity of larotaxel and tesetaxel derivatives on subcutaneously xenografted tumor NCI-H446 in nude mice; settings: D0 IV; for Weight change (%) D5: nude mice; for T/C (%) D20 / Tumor volume (mm^3) (D20) / Tumor inhibitory percent (%) D20 / Tumor volume (mm^3) (D0): NCI-H446 xenograft in nude mice; for Tumor inhibitory percent (%) D20: P = 0.000 vs control; for Tumor volume (mm^3) (D0): baseline at grouping (D0)
Text: Human […] NCI-H446 cells were subcutaneously inoculated into nude mice.

[2] = In vitro dissociation in blood plasma of rat; assay type: in vitro ADME, SD rats; settings: fresh SD rat plasma, 37° C.; for Sampling time/Dissociation percent (%) 2 min: 2 min incubation; for Sampling time/Dissociation percent (%) 5 min: 5 min incubation; for Sampling time/Dissociation percent (%) 10 min: 10 min incubation
Description: The obtained water soluble taxane derivatives of the following formulae were formulated as 0.2 mg/ml aqueous solutions. […] After 2 min, 5 min and 10 min of incubation, 0.2 ml of solutions were respectively taken from each of the samples, and added to acetonitrile (0.4 ml) cooled to −20° C. for precipitation of protein.

[3] = In vitro dissociation in blood plasma of rabbit; assay type: in vitro ADME, New Zealand white rabbits; settings: fresh New Zealand white rabbit plasma, 37° C.
Description: The obtained water soluble taxane derivatives of the following formulae were formulated as 0.2 mg/ml aqueous solutions. […]

[4] = test system: human prostate cancer PC-3; test: Inhibitory activity of cabazitaxel derivatives on subcutaneously xenografted tumor PC-3 in nude mice; settings: 13 mg/kg, D0 IV; for Weight change (%) D6: nude mice; for T/C (%) D20 / Tumor volume (mm^3) (D20) / Tumor inhibitory percent (%) D20 / Tumor volume (mm^3) (D0): PC-3 xenograft in nude mice; for Tumor inhibitory percent (%) D20: P = 0.000 vs control; for Tumor volume (mm^3) (D0): baseline at grouping (D0)
Description: Purpose: to evaluate and compare the inhibitory activity of the water soluble cabazitaxel derivatives and cabazitaxel on subcutaneously xenografted tumor of human prostate cancer PC-3 in nude mice.
Human prostate cancer PC-3 cells were subcutaneously inoculated into nude mice. After the tumor volume reached 100-150 mm^3, the animals were randomly divided into several groups, and administered with the water soluble cabazitaxel derivatives of the following formula and cabazitaxel, respectively once on the same day (D0). The tumor volume was measured 2-3 times per week, the animals were weighed and the data were recorded until day 20 (D20) after grouping.
The tumor volume (V) was calculated according to the equation: V=½×a×b^2, wherein a and b represent the length and the width, respectively.
T/C (%)=(T−T0)/(C−C0)×100, wherein T and C represent the tumor volume at the end of the experiment; and T0 and C0 represent the tumor volume at the beginning of the experiment.

| Compound | Weight change (%) D5 ([1]; 12 mg/kg) | T/C (%) D20 ([1]; 12 mg/kg) | Tumor volume (mm^3) (D20) ([1]; 12 mg/kg) | Tumor inhibitory percent (%) D20 ([1]; 12 mg/kg) | Tumor volume (mm^3) (D0) ([1]; 12 mg/kg) | Weight change (%) D6 [4] | T/C (%) D20 [4] | Tumor volume (mm^3) (D20) [4] | Tumor inhibitory percent (%) D20 [4] | Tumor volume (mm^3) (D0) [4] | also measured |
| --- | --- | --- | --- | --- | --- | --- | --- | --- | --- | --- | --- |
| CC(=O)OC12COC1CCC1(C)C3OC(CN(C)C)OC3C3=C(C)C(OC(=O)C(OC(=O)C(CCN(C)C(C)C)C(F)(F)F)C(NC(=O)OC(C)(C)C)c4ncccc4F)CC(O)(C(OC(=O)c4ccccc4)C12)C3(C)C.O=C(O)CCC(=O)O (mixture of isomers) [Compound C45, 2′-O-[4-N-methyl-N-isopropylamino-2(R,S)-2-trifluoromethylbutyryl]tesetaxel succinate] | −11.4% | −34% | 53.4 ± 12.4 mm^3 | 85% | 112.3 ± 3.1 mm^3 |  |  |  |  |  |  |
| CC(=O)O[C@H]1C(=O)[C@]23C[C@H]2C[C@H]2OC[C@@]2(OC(C)=O)[C@H]3[C@H](OC(=O)c2ccccc2)[C@]2(O)C[C@H](OC(=O)[C@H](OC(=O)[C@H](F)CCN(C)C)[C@@H](NC(=O)OC(C)(C)C)c3ccccc3)C(C)=C1C2(C)C.Cl [Compound C39, 2′-O-[4-N,N-dimethylamino-2(R)-fluorobutyryl]larotaxel hydrochloride] | −8.5% | −62% | 34.9 ± 13.3 mm^3 | 148% | 111.5 ± 2.2 mm^3 |  |  |  |  |  |  |
| CCN(C)CCC(F)C(=O)OC(C(=O)OC1CC2(O)C(OC(=O)c3ccccc3)C3C4(OC(C)=O)COC4CC4CC43C(=O)C(OC(C)=O)C(=C1C)C2(C)C)C(NC(=O)OC(C)(C)C)c1ccccc1.Cl [Compound C40, 2′-O-[4-N-methyl-N-ethylamino-2(R,S)-fluorobutyryl]larotaxel hydrochloride] | −9.1% | −51% | 43.2 ± 12.7 mm^3 | 122% | 112.4 ± 1.8 mm^3 |  |  |  |  |  |  |
| CO[C@H]1C(=O)[C@]2(C)[C@@H](OC)C[C@H]3OC[C@@]3(OC(C)=O)[C@H]2[C@H](OC(=O)c2ccccc2)[C@]2(O)C[C@H](OC(=O)[C@H](OC(=O)[C@@H](F)CCN(C)C)[C@@H](NC(=O)OC(C)(C)C)c3ccccc3)C(C)=C1C2(C)C.CS(=O)(=O)O [Compound C8, 2′-O-[4-N,N-dimethylamino-2(S)-fluorobutyryl]cabazitaxel methanesulfonate] |  |  |  |  |  | −14.4% | −66% | 32.1 ± 12.1 mm^3 | 151% | 111.9 ± 2.0 mm^3 | Sampling time/Dissociation percent (%) 2 min [2]: 49.4%; Sampling time/Dissociation percent (%) 5 min [2]: 88.4%; Sampling time/Dissociation percent (%) 10 min [2]: 100%; Sampling time/Dissociation percent (%) 2 min [3]: 85.6%; Sampling time/Dissociation percent (%) 5 min [3]: 94.5%; Sampling time/Dissociation percent (%) 10 min [3]: 100% |
| CO[C@H]1C(=O)[C@]2(C)[C@@H](OC)C[C@H]3OC[C@@]3(OC(C)=O)[C@H]2[C@H](OC(=O)c2ccccc2)[C@]2(O)C[C@H](OC(=O)[C@H](OC(=O)C(F)CCN(C)C)[C@@H](NC(=O)OC(C)(C)C)c3ccccc3)C(C)=C1C2(C)C.CS(=O)(=O)O (stereo partly drawn) [Compound C9, 2′-O-[4-N,N-dimethylamino-2(R,S)-fluorobutyryl]cabazitaxel methanesulfonate] |  |  |  |  |  | −14.4% | −66% | 32.5 ± 11.6 mm^3 | 151% | 111.4 ± 2.3 mm^3 | Sampling time/Dissociation percent (%) 2 min [2]: 49.3%; Sampling time/Dissociation percent (%) 5 min [2]: 88.6%; Sampling time/Dissociation percent (%) 10 min [2]: 100%; Sampling time/Dissociation percent (%) 2 min [3]: 81.2%; Sampling time/Dissociation percent (%) 5 min [3]: 96.7%; Sampling time/Dissociation percent (%) 10 min [3]: 100% |
| CO[C@H]1C(=O)[C@]2(C)[C@@H](OC)C[C@H]3OC[C@@]3(OC(C)=O)[C@H]2[C@H](OC(=O)c2ccccc2)[C@]2(O)C[C@H](OC(=O)[C@H](OC(=O)[C@H](F)CCN(C)C)[C@@H](NC(=O)OC(C)(C)C)c3ccccc3)C(C)=C1C2(C)C.CS(=O)(=O)O [Compound C7, 2′-O-[4-N,N-dimethylamino-2(R)-fluorobutyryl]cabazitaxel methanesulfonate] |  |  |  |  |  | −14.2% | −67% | 31.5 ± 11.8 mm^3 | 154% | 111.5 ± 2.2 mm^3 | Sampling time/Dissociation percent (%) 2 min [2]: 49.7%; Sampling time/Dissociation percent (%) 5 min [2]: 88.9%; Sampling time/Dissociation percent (%) 10 min [2]: 100%; Sampling time/Dissociation percent (%) 2 min [3]: 78.4%; Sampling time/Dissociation percent (%) 5 min [3]: 94.8%; Sampling time/Dissociation percent (%) 10 min [3]: 100% |
| CO[C@H]1C(=O)[C@]2(C)[C@@H](OC)C[C@H]3OC[C@@]3(OC(C)=O)[C@H]2[C@H](OC(=O)c2ccccc2)[C@]2(O)C[C@H](OC(=O)[C@H](OC(=O)[C@@H](CCN(C)C)C(F)(F)F)[C@@H](NC(=O)OC(C)(C)C)c3ccccc3)C(C)=C1C2(C)C.CS(=O)(=O)O [Compound C35, 2′-O-[4-N,N-dimethylamino-2(R)-2-trifluoromethylbutyryl]cabazitaxel methanesulfonate] |  |  |  |  |  | −15.8% | −46% | 42.3 ± 12.6 mm^3 | 105% | 110.2 ± 4.6 mm^3 |  |
| CC(=O)O[C@@]12CO[C@@H]1CC[C@@]1(C)[C@@H]3O[C@H](CN(C)C)O[C@@H]3C3=C(C)[C@@H](OC(=O)[C@H](O)[C@@H](NC(=O)OC(C)(C)C)c4ncccc4F)C[C@@](O)([C@@H](OC(=O)c4ccccc4)[C@@H]12)C3(C)C [tesetaxel, reference compound] |  |  |  |  |  |  |  |  |  |  | T/C (%) D20 ([1]; 8 mg/kg): −58%; Tumor volume (mm^3) (D20) ([1]; 8 mg/kg): 33.7 ± 12.1 mm^3; Tumor inhibitory percent (%) D20 ([1]; 8 mg/kg): 146%; Tumor volume (mm^3) (D0) ([1]; 8 mg/kg): 112.8 ± 2.2 mm^3 |
| CC(=O)OC1C(=O)C23CC2CC2OCC2(OC(C)=O)C3C(OC(=O)c2ccccc2)C2(O)CC(OC(=O)C(OC(=O)C(CCN(C)C(C)C)C(F)(F)F)C(NC(=O)OC(C)(C)C)c3ccccc3)C(C)=C1C2(C)C.O=C(O)C=CC(=O)O (mixture of isomers) [Compound C41, 2′-O-[4-N-methyl-N-isopropylamino-2(R,S)-2-trifluoromethylbutyryl]larotaxel maleate] | −10.5% | −34% | 51.7 ± 11.9 mm^3 | 67% | 109.8 ± 2.9 mm^3 |  |  |  |  |  |  |
| CC(=O)O[C@@]12CO[C@@H]1CC[C@@]1(C)[C@@H]3O[C@H](CN(C)C)O[C@@H]3C3=C(C)[C@@H](OC(=O)[C@H](OC(=O)[C@H](F)CCN(C)C)[C@@H](NC(=O)OC(C)(C)C)c4ncccc4F)C[C@@](O)([C@@H](OC(=O)c4ccccc4)[C@@H]12)C3(C)C.Cl [Compound C43, 2′-O-[4-N,N-dimethylamino-2(R)-fluorobutyryl]tesetaxel hydrochloride] |  | −61% | 31.8 ± 11.1 mm^3 | 153% | 111.5 ± 2.2 mm^3 |  |  |  |  |  |  |
| CC(=O)OC12COC1CCC1(C)C3OC(CN(C)C)OC3C3=C(C)C(OC(=O)C(OC(=O)C(F)CC(C)N4CCCC4)C(NC(=O)OC(C)(C)C)c4ncccc4F)CC(O)(C(OC(=O)c4ccccc4)C12)C3(C)C.O=S(=O)(O)O (mixture of isomers) [Compound C46, 2′-O-[4-(pyrrolidin-1-yl)amino-2(R,S)-fluorovaleryl]tesetaxel sulfate] |  | −23% | 61.2 ± 14.2 mm^3 | 58% | 111.7 ± 2.8 mm^3 |  |  |  |  |  |  |
| CCN(CC)CCC(F)C(=O)OC(C(=O)OC1CC2(O)C(OC(=O)c3ccccc3)C3C(C)(CCC4OCC43OC(C)=O)C3OC(CN(C)C)OC3C(=C1C)C2(C)C)C(NC(=O)OC(C)(C)C)c1ncccc1F.Cl [Compound C44, 2′-O-[4-N,N-diethylamino-2(S)-fluorobutyryl]tesetaxel hydrochloride] |  | −49% | 41.3 ± 10.9 mm^3 | 123% | 113.6 ± 2.8 mm^3 |  |  |  |  |  |  |
| CC(=O)O[C@H]1C(=O)[C@]23C[C@H]2C[C@H]2OC[C@@]2(OC(C)=O)[C@H]3[C@H](OC(=O)c2ccccc2)[C@]2(O)C[C@H](OC(=O)[C@H](O)[C@@H](NC(=O)OC(C)(C)C)c3ccccc3)C(C)=C1C2(C)C [larotaxel, reference compound] |  |  |  |  |  |  |  |  |  |  | Weight change (%) D5 ([1]; 7 mg/kg): −8.4%; T/C (%) D20 ([1]; 7 mg/kg): −64%; Tumor volume (mm^3) (D20) ([1]; 7 mg/kg): 33.3 ± 12.4 mm^3; Tumor inhibitory percent (%) D20 ([1]; 7 mg/kg): 153%; Tumor volume (mm^3) (D0) ([1]; 7 mg/kg): 110.9 ± 2.4 mm^3 |
